“And” between values parts separate entries of the source, which are not always exact repeats. Equal values may be shown once.

Experiment [1] deals with AKT3 (Homo sapiens, UniProt Q9Y243). The note with it: 1 μM; Run 1, Run 2.
Experiment [2] deals with COT1/MAP3K8 (Homo sapiens, UniProt P41279). To be noted: 1 μM; Run 1, Run 2.
The target in experiment [3] is SRPK2 (Homo sapiens, UniProt P78362). Put plainly: biochemical. The note with it: read-out: % enzyme activity, 1 μM; Run 1, Run 2.
In experiment [4] the target is T1, TLK1 (Homo sapiens, UniProt Q9UKI8).
T1 sequence (Q9UKI8 1-766): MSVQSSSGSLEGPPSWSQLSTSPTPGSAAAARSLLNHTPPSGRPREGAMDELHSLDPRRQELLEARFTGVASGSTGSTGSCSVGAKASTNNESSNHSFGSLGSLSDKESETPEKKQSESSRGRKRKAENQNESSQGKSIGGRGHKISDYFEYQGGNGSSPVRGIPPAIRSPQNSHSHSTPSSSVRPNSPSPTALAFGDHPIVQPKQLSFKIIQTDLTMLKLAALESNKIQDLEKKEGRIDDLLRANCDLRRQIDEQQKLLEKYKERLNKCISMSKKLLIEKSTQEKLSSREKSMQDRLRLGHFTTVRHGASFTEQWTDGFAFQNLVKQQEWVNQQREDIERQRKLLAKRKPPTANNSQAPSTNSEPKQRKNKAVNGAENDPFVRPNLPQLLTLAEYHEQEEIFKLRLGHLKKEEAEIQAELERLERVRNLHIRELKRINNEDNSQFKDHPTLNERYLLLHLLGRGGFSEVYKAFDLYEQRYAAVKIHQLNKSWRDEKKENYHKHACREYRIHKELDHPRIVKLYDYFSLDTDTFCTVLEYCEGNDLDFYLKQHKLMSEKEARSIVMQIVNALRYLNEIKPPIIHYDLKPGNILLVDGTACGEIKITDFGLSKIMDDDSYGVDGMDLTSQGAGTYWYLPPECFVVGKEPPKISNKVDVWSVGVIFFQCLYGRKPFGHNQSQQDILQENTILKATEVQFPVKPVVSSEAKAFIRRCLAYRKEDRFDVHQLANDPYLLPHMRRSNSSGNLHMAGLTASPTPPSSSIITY
Put plainly: biochemical. The note with it: read-out: % enzyme activity, 1 μM; Run 1, Run 2.

The test system of experiment [5] is ALK5/TGFBR1.
For experiment [6], the target named is CDK4/cyclin D1 (Homo sapiens, UniProt P11802). The note with it: 1 μM; Run 1, Run 2.
The target in experiment [7] is T2, MKK6 (Homo sapiens, UniProt P52564).
T2 sequence (P52564 1-334): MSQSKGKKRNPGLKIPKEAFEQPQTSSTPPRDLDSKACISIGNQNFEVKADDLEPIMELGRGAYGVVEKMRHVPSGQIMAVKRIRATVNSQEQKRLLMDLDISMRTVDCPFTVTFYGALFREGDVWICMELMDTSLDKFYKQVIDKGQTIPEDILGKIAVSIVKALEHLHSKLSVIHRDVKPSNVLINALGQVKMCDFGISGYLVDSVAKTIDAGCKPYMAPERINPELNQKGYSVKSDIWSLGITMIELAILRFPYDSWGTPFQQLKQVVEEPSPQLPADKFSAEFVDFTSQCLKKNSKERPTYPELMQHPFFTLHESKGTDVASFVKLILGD
The note with it: 1 μM; Run 1, Run 2.

Experiment [8] addresses MLCK/MYLK (Homo sapiens, UniProt Q15746). To be noted: 1 μM; Run 1, Run 2.
For experiment [9], the target named is CDC7/DBF4 (Homo sapiens, UniProt O00311). The note with it: 1 μM; Run 1, Run 2.
Experiment [10] concerns the target T3, PKG2/PRKG2 (Homo sapiens, UniProt Q13237).
T3 sequence (Q13237 1-762): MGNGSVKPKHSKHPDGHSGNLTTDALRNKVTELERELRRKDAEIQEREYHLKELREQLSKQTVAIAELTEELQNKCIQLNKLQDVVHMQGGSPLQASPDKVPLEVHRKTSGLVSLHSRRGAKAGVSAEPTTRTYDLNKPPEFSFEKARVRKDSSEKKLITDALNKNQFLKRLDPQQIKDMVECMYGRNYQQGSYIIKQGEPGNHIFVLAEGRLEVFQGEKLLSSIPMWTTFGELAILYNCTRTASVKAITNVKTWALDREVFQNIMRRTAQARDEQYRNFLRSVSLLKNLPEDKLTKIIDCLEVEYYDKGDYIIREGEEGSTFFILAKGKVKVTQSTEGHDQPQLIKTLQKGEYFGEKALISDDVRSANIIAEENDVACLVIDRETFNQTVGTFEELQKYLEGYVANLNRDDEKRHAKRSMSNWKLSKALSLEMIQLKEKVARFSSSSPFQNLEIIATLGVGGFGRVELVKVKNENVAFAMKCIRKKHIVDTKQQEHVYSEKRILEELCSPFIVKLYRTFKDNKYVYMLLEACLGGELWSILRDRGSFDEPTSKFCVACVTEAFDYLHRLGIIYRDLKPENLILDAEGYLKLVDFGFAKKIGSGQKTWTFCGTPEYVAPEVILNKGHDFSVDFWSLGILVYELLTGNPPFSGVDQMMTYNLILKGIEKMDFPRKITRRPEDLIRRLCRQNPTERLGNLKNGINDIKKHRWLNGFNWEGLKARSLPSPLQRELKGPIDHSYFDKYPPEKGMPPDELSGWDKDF
To be noted: 1 μM; Run 1, Run 2.

Experiment [11] has as its target T4, DMPK (Homo sapiens, UniProt Q09013).
T4 sequence (Q09013 1-629): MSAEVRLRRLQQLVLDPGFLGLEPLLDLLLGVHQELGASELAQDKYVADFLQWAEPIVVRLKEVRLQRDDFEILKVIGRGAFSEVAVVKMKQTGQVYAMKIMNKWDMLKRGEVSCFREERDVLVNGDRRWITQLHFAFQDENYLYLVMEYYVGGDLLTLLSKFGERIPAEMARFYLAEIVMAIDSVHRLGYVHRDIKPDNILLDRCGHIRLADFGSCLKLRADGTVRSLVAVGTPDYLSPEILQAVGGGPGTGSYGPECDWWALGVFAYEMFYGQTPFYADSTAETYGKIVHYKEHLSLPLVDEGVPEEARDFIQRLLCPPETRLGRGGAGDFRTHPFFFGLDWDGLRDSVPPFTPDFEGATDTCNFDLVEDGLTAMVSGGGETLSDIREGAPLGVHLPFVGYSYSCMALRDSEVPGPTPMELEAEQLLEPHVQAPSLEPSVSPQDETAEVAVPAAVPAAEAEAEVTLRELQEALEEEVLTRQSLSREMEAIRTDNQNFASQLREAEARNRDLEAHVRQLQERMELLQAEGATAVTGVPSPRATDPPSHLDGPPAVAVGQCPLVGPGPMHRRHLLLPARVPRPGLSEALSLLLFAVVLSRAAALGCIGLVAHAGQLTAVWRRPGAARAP
Put plainly: biochemical. To be noted: read-out: % enzyme activity, 1 μM; Run 1, Run 2.

MLCK/MYLK, sequence (Q15746 whole entry): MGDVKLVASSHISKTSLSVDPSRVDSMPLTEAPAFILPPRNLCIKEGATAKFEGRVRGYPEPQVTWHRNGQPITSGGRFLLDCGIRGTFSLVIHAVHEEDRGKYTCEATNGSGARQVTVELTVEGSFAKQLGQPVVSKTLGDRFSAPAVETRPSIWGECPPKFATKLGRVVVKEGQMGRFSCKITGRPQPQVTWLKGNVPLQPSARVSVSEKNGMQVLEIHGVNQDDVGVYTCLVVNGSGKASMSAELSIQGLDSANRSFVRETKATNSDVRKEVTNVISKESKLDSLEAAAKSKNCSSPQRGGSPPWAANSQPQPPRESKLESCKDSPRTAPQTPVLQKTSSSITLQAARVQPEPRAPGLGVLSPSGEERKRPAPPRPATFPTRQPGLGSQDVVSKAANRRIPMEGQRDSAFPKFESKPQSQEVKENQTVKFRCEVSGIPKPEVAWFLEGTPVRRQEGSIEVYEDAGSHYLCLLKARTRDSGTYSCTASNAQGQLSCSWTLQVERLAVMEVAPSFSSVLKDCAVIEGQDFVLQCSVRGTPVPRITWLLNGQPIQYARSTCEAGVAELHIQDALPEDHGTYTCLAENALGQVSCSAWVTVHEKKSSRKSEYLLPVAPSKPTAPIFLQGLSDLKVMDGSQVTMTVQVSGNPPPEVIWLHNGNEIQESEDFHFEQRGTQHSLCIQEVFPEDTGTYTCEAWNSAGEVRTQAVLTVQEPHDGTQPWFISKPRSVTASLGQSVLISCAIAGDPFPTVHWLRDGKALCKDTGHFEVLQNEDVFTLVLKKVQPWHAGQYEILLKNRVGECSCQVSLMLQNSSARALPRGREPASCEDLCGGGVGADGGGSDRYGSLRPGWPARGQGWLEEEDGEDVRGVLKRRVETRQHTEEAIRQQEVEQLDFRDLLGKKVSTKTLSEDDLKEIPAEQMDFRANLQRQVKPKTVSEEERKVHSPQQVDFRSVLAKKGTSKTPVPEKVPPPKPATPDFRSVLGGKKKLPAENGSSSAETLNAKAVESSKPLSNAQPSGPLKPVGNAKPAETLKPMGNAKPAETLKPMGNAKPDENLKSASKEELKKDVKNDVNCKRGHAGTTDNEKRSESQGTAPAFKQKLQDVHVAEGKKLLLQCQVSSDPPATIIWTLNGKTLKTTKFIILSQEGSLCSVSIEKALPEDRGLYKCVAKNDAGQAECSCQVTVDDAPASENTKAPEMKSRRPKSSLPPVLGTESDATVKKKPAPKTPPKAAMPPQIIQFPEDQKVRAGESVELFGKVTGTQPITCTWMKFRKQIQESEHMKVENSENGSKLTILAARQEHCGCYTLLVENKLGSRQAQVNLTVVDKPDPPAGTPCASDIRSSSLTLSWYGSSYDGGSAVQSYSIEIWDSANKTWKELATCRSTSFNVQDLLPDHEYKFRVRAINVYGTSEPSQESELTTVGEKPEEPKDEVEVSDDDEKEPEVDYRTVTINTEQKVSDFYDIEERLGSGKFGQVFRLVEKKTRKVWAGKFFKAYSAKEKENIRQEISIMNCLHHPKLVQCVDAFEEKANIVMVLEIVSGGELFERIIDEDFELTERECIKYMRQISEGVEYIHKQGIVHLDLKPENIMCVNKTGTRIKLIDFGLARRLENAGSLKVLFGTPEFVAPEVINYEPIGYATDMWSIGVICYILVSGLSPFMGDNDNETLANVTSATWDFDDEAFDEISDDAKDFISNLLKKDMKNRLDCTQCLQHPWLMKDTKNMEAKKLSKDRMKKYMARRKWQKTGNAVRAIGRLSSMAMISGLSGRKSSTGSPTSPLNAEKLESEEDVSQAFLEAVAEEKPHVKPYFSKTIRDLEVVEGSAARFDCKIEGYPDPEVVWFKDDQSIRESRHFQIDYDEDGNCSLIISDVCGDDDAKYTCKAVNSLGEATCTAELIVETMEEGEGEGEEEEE
COT1/MAP3K8, sequence (P41279 whole entry): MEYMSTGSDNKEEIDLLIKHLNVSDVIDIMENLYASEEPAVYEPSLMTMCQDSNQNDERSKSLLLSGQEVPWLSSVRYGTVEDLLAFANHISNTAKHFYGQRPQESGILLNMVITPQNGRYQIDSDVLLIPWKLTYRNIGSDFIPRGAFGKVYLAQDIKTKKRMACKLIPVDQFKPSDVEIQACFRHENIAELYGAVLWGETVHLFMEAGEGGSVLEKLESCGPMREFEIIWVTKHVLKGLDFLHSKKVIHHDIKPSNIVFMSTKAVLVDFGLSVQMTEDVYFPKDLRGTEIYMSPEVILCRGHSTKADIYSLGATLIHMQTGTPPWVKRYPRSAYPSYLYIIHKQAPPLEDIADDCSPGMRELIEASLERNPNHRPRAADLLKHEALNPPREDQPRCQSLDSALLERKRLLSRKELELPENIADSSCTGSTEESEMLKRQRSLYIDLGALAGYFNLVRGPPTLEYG
CDK4/cyclin D1, sequence (P11802 whole entry): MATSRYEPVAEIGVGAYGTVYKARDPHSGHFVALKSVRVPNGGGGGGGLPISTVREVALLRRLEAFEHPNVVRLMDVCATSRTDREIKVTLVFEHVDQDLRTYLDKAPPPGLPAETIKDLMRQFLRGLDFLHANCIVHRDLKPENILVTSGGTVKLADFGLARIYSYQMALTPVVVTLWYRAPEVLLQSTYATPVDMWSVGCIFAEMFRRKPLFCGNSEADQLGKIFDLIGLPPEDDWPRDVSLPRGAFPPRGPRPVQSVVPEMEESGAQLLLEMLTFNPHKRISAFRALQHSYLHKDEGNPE
CDK4/cyclin D1, sequence (P24385 whole entry partner): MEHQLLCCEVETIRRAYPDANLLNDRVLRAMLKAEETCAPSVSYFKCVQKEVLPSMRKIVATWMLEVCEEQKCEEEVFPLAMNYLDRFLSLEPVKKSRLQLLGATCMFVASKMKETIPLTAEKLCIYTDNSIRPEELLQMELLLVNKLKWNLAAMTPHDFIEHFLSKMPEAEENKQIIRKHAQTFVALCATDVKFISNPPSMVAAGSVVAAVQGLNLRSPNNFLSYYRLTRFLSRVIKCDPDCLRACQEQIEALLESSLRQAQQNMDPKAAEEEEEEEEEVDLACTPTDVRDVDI
SRPK2, sequence (P78362 whole entry): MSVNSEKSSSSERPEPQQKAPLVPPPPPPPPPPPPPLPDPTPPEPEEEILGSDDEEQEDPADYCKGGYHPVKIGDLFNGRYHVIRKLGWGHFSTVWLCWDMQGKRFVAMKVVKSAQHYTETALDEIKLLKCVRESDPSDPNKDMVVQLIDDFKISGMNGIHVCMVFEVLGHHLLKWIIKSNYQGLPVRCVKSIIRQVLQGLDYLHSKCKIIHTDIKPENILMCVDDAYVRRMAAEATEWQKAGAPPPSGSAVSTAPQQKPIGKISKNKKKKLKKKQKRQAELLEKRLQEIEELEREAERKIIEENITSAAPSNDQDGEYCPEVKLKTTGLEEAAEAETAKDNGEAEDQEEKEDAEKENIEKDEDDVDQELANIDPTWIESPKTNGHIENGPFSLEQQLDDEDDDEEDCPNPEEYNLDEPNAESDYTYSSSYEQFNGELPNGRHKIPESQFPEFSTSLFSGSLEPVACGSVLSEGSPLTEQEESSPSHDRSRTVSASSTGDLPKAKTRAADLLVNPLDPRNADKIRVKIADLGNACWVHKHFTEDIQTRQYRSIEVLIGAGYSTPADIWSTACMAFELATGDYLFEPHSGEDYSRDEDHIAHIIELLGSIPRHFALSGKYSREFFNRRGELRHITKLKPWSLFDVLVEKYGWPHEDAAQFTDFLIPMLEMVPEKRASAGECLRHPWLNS
AKT3, sequence (Q9Y243 whole entry): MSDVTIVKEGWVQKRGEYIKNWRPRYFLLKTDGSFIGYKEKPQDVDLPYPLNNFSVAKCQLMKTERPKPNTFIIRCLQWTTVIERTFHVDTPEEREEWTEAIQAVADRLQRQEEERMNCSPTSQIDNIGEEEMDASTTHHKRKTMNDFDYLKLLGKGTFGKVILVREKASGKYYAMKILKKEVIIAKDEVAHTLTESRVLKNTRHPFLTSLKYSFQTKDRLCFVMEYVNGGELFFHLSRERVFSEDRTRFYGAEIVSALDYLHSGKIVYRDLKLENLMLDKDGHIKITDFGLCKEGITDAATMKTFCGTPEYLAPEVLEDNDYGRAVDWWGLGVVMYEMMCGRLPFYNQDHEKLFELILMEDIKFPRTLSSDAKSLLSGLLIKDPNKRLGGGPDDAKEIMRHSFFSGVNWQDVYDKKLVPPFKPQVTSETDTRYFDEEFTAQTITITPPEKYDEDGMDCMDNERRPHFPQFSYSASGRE

`COc1cc(-c2cncc(-c3ccc(N4CCN(C)CC4)cc3)c2C)cc(F)c1C(N)=O` [Compound 26a, 2-Fluoro-6-methoxy-4-(4-methyl-5-(4-(4-methylpiperazin-1-yl)phenyl)pyridin-3-yl)benzamide]: the “% enzyme activity” value in experiment [1] came to 94.73%; in experiment [2], 90.60%; in [6], 98.46%; in [7], 80.71%; in experiment [8], 106.15%; in experiment [9], 91.84%. Besides, the “% enzyme activity” value in experiment [10] is listed as 97.48%. In addition, the remaining activity at 1 µM in [3] stood at 97.8%; in [4], 108%; in [11], 109%. Also, in experiment [5], the % enzyme activity at 1 μM was 82.5% and 82.3%.

Regarding `COc1cc(-c2cncc(-c3ccc(N4C[C@@H](C)N(C)[C@@H](C)C4)cc3)c2C)cc(F)c1C(N)=O` [Compound 26c, 2-Fluoro-6-methoxy-4-(4-methyl-5-(4-((3R,5S)-3,4,5-trimethylpiperazin-1-yl)phenyl)pyridin-3-yl)benzamide], the “% enzyme activity” value was determined as 98.56% in experiment [1]; 93.89% in experiment [2]; 100.29% in experiment [6]; 79.33% in [7]; 101.49% in [8]; 93.55% in experiment [9]. Moreover, the “% enzyme activity” value in [10] is 97.08%. In addition, the remaining activity at 1 µM in [3] amounted to 121%; in experiment [4] it was 104%; in [11], 105%. Also, in experiment [5], the % enzyme activity at 1 μM was 97.2% and 96.6%.

These data come from publication PMC8213057, “Targeting ALK2: An Open Science Approach to Developing Therapeutics for the Treatment of Diffuse Intrinsic Pontine Glioma” (Journal of Medicinal Chemistry, 2020).
